# In US20260234159A1, “SMALL MOLECULE TREATMENT OF FATTY LIVER DISEASE AND HCC” (SCANDIEDGE THERAPEUTICS AB, priority 2023, published 2026):
# Key:
# [1] = MTT cell viability after one week steatosis (ranking of target molecules); type: cell-based, human; conditions: human, HepG2 cells (wild type); HepG2, 10 μM, one week steatosis induce media, MTT; Control 100.00
# In short: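 HepG2 cells, 60,000 per well, kept one week in steatosis medium (high-glucose DMEM, 10 μg/ml insulin, 10 μM T0901317) with 10 μM compound. Medium changed at day 0, 3 and 5. Viability measured by MTT.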
# HepG2 cells = experiment: Mitochondrial membrane potential assay (TMRE); type: cell-based, human; conditions: 10 μM, one day
# In short: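 HepG2 cells treated with compounds at the chosen concentration and time, then assayed with kits for TMRE, autophagy, DCFDA ROS or lipid peroxidation. Fluorescence intensity measured from ROI in images or by microplate reader in triplicate (GFP Ex480/Em530 nm, RFP Ex549/Em574 nm).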
# [2] = In vivo toxicological study in rats: clinical observations and body weight; conditions: 300 mg/kg oral administration
# Experimental: Forty-two male and forty-two female rats of the Wistar strain were allocated to the study. Three groups of three males and three females were given doses of 30, 100 and 300 mg/kg of target compounds (Table 8). The vehicle was 1.5 w/w % HPMC, 1.5 w/w % PS80 in 10 mM PBS, pH 7 and dose volume were 5 mL/kg.
# The animals were acclimatised at least 14 day prior to the study and exposed to a 12 hours light, 12 hours dark light cycle. The formulations were administered via oral gavage. Administration occurred once daily in the morning for seven consecutive days.
# A check of animal health and welfare status was done at least once on working days and weekend days.
# Body weights were recorded the week before and within 24 hours before start of dosing, on Day 3 and on necropsy Day 8.
# [3] = In vivo toxicological study in rats: haematology; set-up: species or system rats of the Wistar strain
# Experimental: Forty-two male and forty-two female rats of the Wistar strain were allocated to the study. Three groups of three males and three females were given doses of 30, 100 and 300 mg/kg of target compounds (Table 8). The vehicle was 1.5 w/w % HPMC, 1.5 w/w % PS80 in 10 mM PBS, pH 7 and dose volume were 5 mL/kg. The animals were acclimatised at least 14 day prior to the study and exposed to a 12 hours light, 12 hours dark light cycle. The formulations were administered via oral gavage. Administration occurred once daily in the morning for seven consecutive days. Blood for scheduled haematology and plasma chemistry were taken at necropsy. For plasma chemistry, 0.6 ml blood (lithium heparin) per animal and for haematology, 0.5 ml blood (K2EDTA) per animal. The blood and plasma were analysed using Exigo analyzer and Vetscan equipment. Blood was analysed within 60 min of sampling. On the morning of analysis, the Exigo analyzer was checked against a reference sample provided by the manufacturer, and a control sample analysis cycle was performed (Table 9).
# [4] = female, 30 mg/kg oral daily 7 d
# [5] = female, 100 mg/kg oral daily 7 d
# [6] = female, 300 mg/kg oral daily 7 d
smiles,measurement,setting,value
"N#Cc1c(NC(=O)c2cccc3ccccc23)sc2c1CCCC2 [JNK-IN-5A, N-(3-cyano-4,5,6,7-tetrahydrobenzo[b]thiophen-2-yl)-1-naphthamide]","viability at 1 week, 10 µM",[1],56.4%
same,mitochondrial membrane potential,HepG2 cells,significantly decreased
"COc1ccc(C(=O)Nc2sc3c(c2C#N)CCCCC3)cc1OC [PKL-A135, N-(3-cyano-5,6,7,8-tetrahydro-4H-cyclohepta[b]thiophen-2-yl)-3,4-dimethoxy-benzamide]","tolerability (adverse clinical signs, body weight, clinical pathology parameters)",[2],well tolerated
same,GRAN,[3]; [4],0.97 10^9/l
same,HCT,[3]; [4],41.7%
same,HGB,[3]; [4],14.2 g/dL
same,LYM,[3]; [4],5.4 10^9/l
same,MCH,[3]; [4],19.5 pg
same,MCHC,[3]; [4],34.1 g/dL
same,MCV,[3]; [4],57.4 fL
same,MONO,[3]; [4],0.17 10^9/l
same,PLT,[3]; [4],1014 10^9/l
same,RBC,[3]; [4],7.26 10^12/l
same,RDW %,[3]; [4],14.2%
same,WBC,[3]; [4],6.6 10^9/l
same,GRAN,[3]; [5],1.33 10^9/l
same,HCT,[3]; [5],42.1%
same,HGB,[3]; [5],14.4 g/dL
same,LYM,[3]; [5],6.7 10^9/l
same,MCH,[3]; [5],19.9 pg
same,MCHC,[3]; [5],34.1 g/dL
same,MCV,[3]; [5],58.4 fL
same,MONO,[3]; [5],0.27 10^9/l
same,PLT,[3]; [5],978 10^9/l
same,RBC,[3]; [5],7.21 10^12/l
same,RDW %,[3]; [5],13.7%
same,WBC,[3]; [5],8.3 10^9/l
same,GRAN,[3]; [6],1.10 10^9/l
same,HCT,[3]; [6],42.8%
same,HGB,[3]; [6],14.7 g/dL
same,LYM,[3]; [6],5.1 10^9/l
same,MCH,[3]; [6],20.8 pg
same,MCHC,[3]; [6],34.2 g/dL
same,MCV,[3]; [6],60.8 fL
same,MONO,[3]; [6],0.20 10^9/l
same,PLT,[3]; [6],1011 10^9/l
same,RBC,[3]; [6],7.04 10^12/l
same,RDW %,[3]; [6],13.8%
same,WBC,[3]; [6],6.4 10^9/l
same,GRAN,"[3]; male, 30 mg/kg oral daily 7 d",1.83 10^9/l
same,HCT,"[3]; male, 30 mg/kg oral daily 7 d",44.3%
same,HGB,"[3]; male, 30 mg/kg oral daily 7 d",15 g/dL
same,LYM,"[3]; male, 30 mg/kg oral daily 7 d",6.5 10^9/l
same,MCH,"[3]; male, 30 mg/kg oral daily 7 d",19.7 pg
same,MCHC,"[3]; male, 30 mg/kg oral daily 7 d",33.9 g/dL
same,MCV,"[3]; male, 30 mg/kg oral daily 7 d",58.2 fL
same,MONO,"[3]; male, 30 mg/kg oral daily 7 d",0.30 10^9/l
same,PLT,"[3]; male, 30 mg/kg oral daily 7 d",841 10^9/l
same,RBC,"[3]; male, 30 mg/kg oral daily 7 d",7.62 10^12/l
same,RDW %,"[3]; male, 30 mg/kg oral daily 7 d",14.1%
same,WBC,"[3]; male, 30 mg/kg oral daily 7 d",8.6 10^9/l
same,GRAN,"[3]; male, 100 mg/kg oral daily 7 d",1.17 10^9/l
same,HCT,"[3]; male, 100 mg/kg oral daily 7 d",43.2%
same,HGB,"[3]; male, 100 mg/kg oral daily 7 d",14.6 g/dL
same,LYM,"[3]; male, 100 mg/kg oral daily 7 d",6.1 10^9/l
same,MCH,"[3]; male, 100 mg/kg oral daily 7 d",19.6 pg
same,MCHC,"[3]; male, 100 mg/kg oral daily 7 d",33.7 g/dL
same,MCV,"[3]; male, 100 mg/kg oral daily 7 d",58.1 fL
same,MONO,"[3]; male, 100 mg/kg oral daily 7 d",0.17 10^9/l
same,PLT,"[3]; male, 100 mg/kg oral daily 7 d",815 10^9/l
same,RBC,"[3]; male, 100 mg/kg oral daily 7 d",7.43 10^12/l
same,RDW %,"[3]; male, 100 mg/kg oral daily 7 d",14.4%
same,WBC,"[3]; male, 100 mg/kg oral daily 7 d",7.4 10^9/l
same,GRAN,"[3]; male, 300 mg/kg oral daily 7 d",1.13 10^9/l
same,HCT,"[3]; male, 300 mg/kg oral daily 7 d",43.8%
same,HGB,"[3]; male, 300 mg/kg oral daily 7 d",14.9 g/dL
same,LYM,"[3]; male, 300 mg/kg oral daily 7 d",6.2 10^9/l
same,MCH,"[3]; male, 300 mg/kg oral daily 7 d",20.7 pg
same,MCHC,"[3]; male, 300 mg/kg oral daily 7 d",34 g/dL
same,MCV,"[3]; male, 300 mg/kg oral daily 7 d",60.9 fL
same,MONO,"[3]; male, 300 mg/kg oral daily 7 d",0.20 10^9/l
same,PLT,"[3]; male, 300 mg/kg oral daily 7 d",924 10^9/l
same,RBC,"[3]; male, 300 mg/kg oral daily 7 d",7.20 10^12/l
same,RDW %,"[3]; male, 300 mg/kg oral daily 7 d",14.0%
same,WBC,"[3]; male, 300 mg/kg oral daily 7 d",7.5 10^9/l
same,"viability at 1 week, 10 µM",[1],63.2%
same,mitochondrial membrane potential,HepG2 cells,significantly decreased
COc1ccccc1NC(=O)N1CCc2c(sc(NC(=O)c3cccc4ccccc34)c2C#N)C1 [PKL-A152],"tolerability (adverse clinical signs, body weight, clinical pathology parameters)",[2],well tolerated
same,GRAN,[3]; [4],1.00 10^9/l
same,HCT,[3]; [4],41.5%
same,HGB,[3]; [4],14.1 g/dL
same,LYM,[3]; [4],5.6 10^9/l
same,MCH,[3]; [4],19.5 pg
same,MCHC,[3]; [4],34.1 g/dL
same,MCV,[3]; [4],57.2 fL
same,MONO,[3]; [4],0.17 10^9/l
same,PLT,[3]; [4],1089 10^9/l
same,RBC,[3]; [4],7.24 10^12/l
same,RDW %,[3]; [4],13.9%
same,WBC,[3]; [4],6.8 10^9/l
same,GRAN,[3]; [5],1.20 10^9/l
same,HCT,[3]; [5],42.0%
same,HGB,[3]; [5],14.3 g/dL
same,LYM,[3]; [5],5.7 10^9/l
same,MCH,[3]; [5],19.5 pg
same,MCHC,[3]; [5],34 g/dL
same,MCV,[3]; [5],57.4 fL
same,MONO,[3]; [5],0.17 10^9/l
same,PLT,[3]; [5],1122 10^9/l
same,RBC,[3]; [5],7.32 10^12/l
same,RDW %,[3]; [5],14.0%
same,WBC,[3]; [5],7.1 10^9/l
same,GRAN,[3]; [6],1.03 10^9/l
same,HCT,[3]; [6],42.9%
same,HGB,[3]; [6],14.7 g/dL
same,LYM,[3]; [6],4.8 10^9/l
same,MCH,[3]; [6],19.7 pg
same,MCHC,[3]; [6],34.1 g/dL
same,MCV,[3]; [6],57.7 fL
same,MONO,[3]; [6],0.23 10^9/l
same,PLT,[3]; [6],1062 10^9/l
same,RBC,[3]; [6],7.43 10^12/l
same,RDW %,[3]; [6],14.1%
same,WBC,[3]; [6],6.0 10^9/l
same,GRAN,"[3]; male, 30 mg/kg oral daily 7 d",1.50 10^9/l
same,HCT,"[3]; male, 30 mg/kg oral daily 7 d",46.3%
same,HGB,"[3]; male, 30 mg/kg oral daily 7 d",15.6 g/dL
same,LYM,"[3]; male, 30 mg/kg oral daily 7 d",5.9 10^9/l
same,MCH,"[3]; male, 30 mg/kg oral daily 7 d",19.6 pg
same,MCHC,"[3]; male, 30 mg/kg oral daily 7 d",33.8 g/dL
same,MCV,"[3]; male, 30 mg/kg oral daily 7 d",58.0 fL
same,MONO,"[3]; male, 30 mg/kg oral daily 7 d",0.23 10^9/l
same,PLT,"[3]; male, 30 mg/kg oral daily 7 d",922 10^9/l
same,RBC,"[3]; male, 30 mg/kg oral daily 7 d",7.97 10^12/l
same,RDW %,"[3]; male, 30 mg/kg oral daily 7 d",14.2%
same,WBC,"[3]; male, 30 mg/kg oral daily 7 d",7.7 10^9/l
same,GRAN,"[3]; male, 100 mg/kg oral daily 7 d",1.47 10^9/l
same,HCT,"[3]; male, 100 mg/kg oral daily 7 d",44.7%
same,HGB,"[3]; male, 100 mg/kg oral daily 7 d",15.1 g/dL
same,LYM,"[3]; male, 100 mg/kg oral daily 7 d",6.9 10^9/l
same,MCH,"[3]; male, 100 mg/kg oral daily 7 d",19.8 pg
same,MCHC,"[3]; male, 100 mg/kg oral daily 7 d",33.8 g/dL
same,MCV,"[3]; male, 100 mg/kg oral daily 7 d",58.8 fL
same,MONO,"[3]; male, 100 mg/kg oral daily 7 d",0.17 10^9/l
same,PLT,"[3]; male, 100 mg/kg oral daily 7 d",990 10^9/l
same,RBC,"[3]; male, 100 mg/kg oral daily 7 d",7.63 10^12/l
same,RDW %,"[3]; male, 100 mg/kg oral daily 7 d",14.6%
same,WBC,"[3]; male, 100 mg/kg oral daily 7 d",8.5 10^9/l
same,GRAN,"[3]; male, 300 mg/kg oral daily 7 d",1.17 10^9/l
same,HCT,"[3]; male, 300 mg/kg oral daily 7 d",45.6%
same,HGB,"[3]; male, 300 mg/kg oral daily 7 d",15.4 g/dL
same,LYM,"[3]; male, 300 mg/kg oral daily 7 d",5.8 10^9/l
same,MCH,"[3]; male, 300 mg/kg oral daily 7 d",19.7 pg
same,MCHC,"[3]; male, 300 mg/kg oral daily 7 d",33.8 g/dL
same,MCV,"[3]; male, 300 mg/kg oral daily 7 d",58.4 fL
same,MONO,"[3]; male, 300 mg/kg oral daily 7 d",0.17 10^9/l
same,PLT,"[3]; male, 300 mg/kg oral daily 7 d",1046 10^9/l
same,RBC,"[3]; male, 300 mg/kg oral daily 7 d",7.80 10^12/l
same,RDW %,"[3]; male, 300 mg/kg oral daily 7 d",14.4%
same,WBC,"[3]; male, 300 mg/kg oral daily 7 d",7.2 10^9/l
same,"viability at 1 week, 10 µM",[1],43.9%
